This experiment deals with BDF1 mice, L1210 leukemia sc, survival T/C. The experiment can be described thus: NCI In Vivo Anticancer Drug Screen. Data for tumor model L1210 Leukemia (subcutaneous) in B6D2F1 (BDF1) mice. As to conditions: endpoint: median survival time, higher = longer survival. In short, it runs like this:
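Antitumor activity is assessed in mice with transplanted tumors by comparing the treated group (T) with the vehicle control group (C).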

Where “and” joins values, the source holds several entries; their conditions need not be identical. Identical values can stand only once. Toxic doses and inconclusive results are not listed.

Turning to `O=C1CN=C(c2ccc[nH]2)c2cc(Cl)ccc2N1`, the T/C is 100 % of control (dose: 2.5 mg/kg/injection, schedule: Q01DX009 (ip), vehicle: clinical formulation); 88 % of control (dose: 2.5 mg/kg/injection, schedule: Q01DX009 (sc), vehicle: clinical formulation); 100 % of control (dose: 5.0 mg/kg/injection, schedule: Q01DX009 (ip), vehicle: clinical formulation); 88 % of control (dose: 5.0 mg/kg/injection, schedule: Q01DX009 (sc), vehicle: clinical formulation); 88 % of control (dose: 10.0 mg/kg/injection, schedule: Q01DX009 (ip), vehicle: clinical formulation); 88 % of control (dose: 10.0 mg/kg/injection, schedule: Q01DX009 (sc), vehicle: clinical formulation). Also, the T/C (dose: 12.5 mg/kg/injection, schedule: Q01DX009 (ip), vehicle: Klucel (hydroxypropylcellulose) (HPC)) was 100 % of control; the T/C (dose: 12.5 mg/kg/injection, schedule: Q01DX009 (sc), vehicle: Klucel (hydroxypropylcellulose) (HPC)) is 94 % of control; the T/C (dose: 20.0 mg/kg/injection, schedule: Q01DX009 (ip), vehicle: clinical formulation) is 100 % of control; the T/C (dose: 20.0 mg/kg/injection, schedule: Q01DX009 (sc), vehicle: clinical formulation) was 88 % of control; the T/C (dose: 25.0 mg/kg/injection, schedule: Q01DX009 (ip), vehicle: Klucel (hydroxypropylcellulose) (HPC)) is 88 % of control; the T/C (dose: 25.0 mg/kg/injection, schedule: Q01DX009 (sc), vehicle: Klucel (hydroxypropylcellulose) (HPC)) was 100 % of control. Moreover, the T/C (dose: 40.0 mg/kg/injection, schedule: Q01DX009 (ip), vehicle: clinical formulation) is 100 % of control; the T/C (dose: 40.0 mg/kg/injection, schedule: Q01DX009 (sc), vehicle: clinical formulation) is 88 % of control; the T/C (dose: 50.0 mg/kg/injection, schedule: Q01DX009 (ip), vehicle: Klucel (hydroxypropylcellulose) (HPC)) was 100 % of control; the T/C (dose: 50.0 mg/kg/injection, schedule: Q01DX009 (ip), vehicle: steriod suspending solution) is 111 % of control; the T/C (dose: 50.0 mg/kg/injection, schedule: Q01DX009 (sc), vehicle: Klucel (hydroxypropylcellulose) (HPC)) was 100 % of control; the T/C (dose: 50.0 mg/kg/injection, schedule: Q01DX009 (sc), vehicle: steriod suspending solution) was 100 % of control. The T/C reads like this: (dose: 80.0 mg/kg/injection, schedule: Q01DX009 (ip), vehicle: clinical formulation) 88 % of control; (dose: 80.0 mg/kg/injection, schedule: Q01DX009 (ip), vehicle: other) 100 % of control; (dose: 80.0 mg/kg/injection, schedule: Q01DX009 (sc), vehicle: clinical formulation) 100 % of control; (dose: 100.0 mg/kg/injection, schedule: Q01DX009 (ip), vehicle: Klucel (hydroxypropylcellulose) (HPC)) 155 % of control; (dose: 100.0 mg/kg/injection, schedule: Q01DX009 (ip), vehicle: steriod suspending solution) 111 % of control; (dose: 100.0 mg/kg/injection, schedule: Q01DX009 (sc), vehicle: Klucel (hydroxypropylcellulose) (HPC)) 111 % of control. The T/C runs as follows: (dose: 100.0 mg/kg/injection, schedule: Q01DX009 (sc), vehicle: steriod suspending solution) 100 % of control; (dose: 100.0 mg/kg/injection, schedule: Q08DX009 (sc), vehicle: Klucel (hydroxypropylcellulose) (HPC)) 100 % of control and 101 % of control; (dose: 200.0 mg/kg/injection, schedule: Q01DX009 (ip), vehicle: steriod suspending solution) 111 % of control; (dose: 200.0 mg/kg/injection, schedule: Q01DX009 (sc), vehicle: Klucel (hydroxypropylcellulose) (HPC)) 172 % of control; (dose: 200.0 mg/kg/injection, schedule: Q01DX009 (sc), vehicle: steriod suspending solution) 105 % of control; (dose: 200.0 mg/kg/injection, schedule: Q08DX009 (sc), vehicle: Klucel (hydroxypropylcellulose) (HPC)) 105 % of control. Besides, the T/C is, setting by setting: (dose: 400.0 mg/kg/injection, schedule: Q01DX009 (ip), vehicle: steriod suspending solution) 150 % of control; (dose: 400.0 mg/kg/injection, schedule: Q01DX009 (sc), vehicle: Klucel (hydroxypropylcellulose) (HPC)) 183 % of control; (dose: 400.0 mg/kg/injection, schedule: Q01DX009 (sc), vehicle: steriod suspending solution) 166 % of control; (dose: 400.0 mg/kg/injection, schedule: Q08DX009 (sc), vehicle: Klucel (hydroxypropylcellulose) (HPC)) 98 % of control and 100 % of control; (dose: 800.0 mg/kg/injection, schedule: Q01DX009 (sc), vehicle: steriod suspending solution) 166 % of control; (dose: 2313.0 mg/kg/injection, schedule: Q01DX009 (sc), vehicle: Klucel (hydroxypropylcellulose) (HPC)) 88 % of control and 93 % of control. In addition, where the note is “dose: 3855.0 mg/kg/injection, schedule: Q01DX009 (sc), vehicle: Klucel (hydroxypropylcellulose) (HPC)”, the T/C was 87 % of control.
Turning to `CCN(O)C(N)=O`, the T/C is 95 % of control (dose: 1.0 mg/kg/injection, schedule: Q01DX Z (sc), vehicle: methylcellulose (MC)); 104 % of control (dose: 2.0 mg/kg/injection, schedule: Q01DX Z (sc), vehicle: methylcellulose (MC)); 91 % of control (dose: 4.0 mg/kg/injection, schedule: Q01DX Z (sc), vehicle: methylcellulose (MC)); 100 % of control (dose: 8.0 mg/kg/injection, schedule: Q01DX Z (sc), vehicle: methylcellulose (MC)); 100 % of control (dose: 16.0 mg/kg/injection, schedule: Q01DX Z (sc), vehicle: methylcellulose (MC)); 100 % of control (dose: 31.0 mg/kg/injection, schedule: Q01DX Z (sc), vehicle: methylcellulose (MC)). Also, the T/C is 100 % of control (dose: 62.0 mg/kg/injection, schedule: Q01DX Z (sc), vehicle: methylcellulose (MC)); 100 % of control (dose: 125.0 mg/kg/injection, schedule: Q01DX Z (sc), vehicle: methylcellulose (MC)); 112 % of control (dose: 250.0 mg/kg/injection, schedule: Q01DX Z (sc), vehicle: methylcellulose (MC)).

For the origin of these results see PubChem BioAssay AID250 (DTP/NCI, 2004).
